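In this assay, cells in 96-well plates receive the compound at five concentrations for 48 hours. Endpoints are linearly interpolated between the surrounding concentrations. At the TGI there is no net growth.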 Where a SMILES comes first, the peptide text is derived from it. Bridges are numbered along the chain shown (N, C = ends). [ ]: non-standard residue; d: D form. The star is where a group is joined. Cbz = O=C(OCc1ccccc1)*; Aib = CC(C)(N)C(=O)O; OBn = c1ccc(CO*)cc1; βAla = NCCC(=O)O
These molecules were tested on 786-0 renal (assay: DTP human tumour cell line panel, 48 h).

| SMILES | TGI [µM] |
| --- | --- |
| CCOC(=O)C(=C(SC)SC)c1nn2c(=O)cc(C)nc2s1 | 36.2 |
| CCCN=C(NC(=O)c1ccc(Cl)cc1)SC | > 100 |
| Cc1c(Cc2ccccc2)n(COCCCO)c(=O)[nH]c1=O | > 100 |
| CC1(C)NC(=O)C(NC(=O)C(CC(=O)OCc2ccccc2)NC(=O)OCc2ccccc2)CCCCNC(=O)CCNC1=O (centres undefined) (Cbz-D(OBn)K[Aib][βAla]; lactam 2-C; configuration not given here) | > 100 |
| c1ccc2c(c1)nc1n2CNCC1 | > 100 |

The molecules below were run on OVCAR-5 ovarian (assay: DTP human tumour cell line panel, 48 h).

| SMILES | TGI [µM] |
| --- | --- |
| CC(=O)OC[C@H]1[C@@H]2C(CC[C@]13CO3)OC(=O)CC(C)[C@]2(C)CCc1ccoc1 (some centres undefined) | > 100 |
| CCOC(=O)C(=C(SC)SC)c1nn2c(=O)cc(C)nc2s1 | 67.2 |
| CCCN=C(NC(=O)c1ccc(Cl)cc1)SC | > 100 |
| COc1ccc(-c2c(C#N)c(NC(=S)NC(=O)c3ccccc3)nc3c2CCCC3)cc1OC | > 100 |
| Cc1c(Cc2ccccc2)n(COCCCO)c(=O)[nH]c1=O | > 100 |
| CC1(C)NC(=O)C(NC(=O)C(CC(=O)OCc2ccccc2)NC(=O)OCc2ccccc2)CCCCNC(=O)CCNC1=O (centres undefined) (Cbz-D(OBn)K[Aib][βAla]; lactam 2-C; configuration not given here) | > 100 |
| c1ccc2c(c1)nc1n2CNCC1 | > 100 |

Each molecule was assayed on UO-31 renal (assay: DTP human tumour cell line panel, 48 h).

| SMILES | TGI [µM] |
| --- | --- |
| CC(=O)OC[C@H]1[C@@H]2C(CC[C@]13CO3)OC(=O)CC(C)[C@]2(C)CCc1ccoc1 (some centres undefined) | > 100 |
| CCOC(=O)C(=C(SC)SC)c1nn2c(=O)cc(C)nc2s1 | 34 |
| CCCN=C(NC(=O)c1ccc(Cl)cc1)SC | 46.4 |
| COc1ccc(-c2c(C#N)c(NC(=S)NC(=O)c3ccccc3)nc3c2CCCC3)cc1OC | > 100 |
| Cc1c(Cc2ccccc2)n(COCCCO)c(=O)[nH]c1=O | > 100 |
| CC1(C)NC(=O)C(NC(=O)C(CC(=O)OCc2ccccc2)NC(=O)OCc2ccccc2)CCCCNC(=O)CCNC1=O (centres undefined) (Cbz-D(OBn)K[Aib][βAla]; lactam 2-C; configuration not given here) | > 100 |
| c1ccc2c(c1)nc1n2CNCC1 | > 100 |

The molecules below were run on KM12 colon (assay: DTP human tumour cell line panel, 48 h).

| SMILES | TGI [µM] |
| --- | --- |
| CC(=O)OC[C@H]1[C@@H]2C(CC[C@]13CO3)OC(=O)CC(C)[C@]2(C)CCc1ccoc1 (some centres undefined) | > 100 |
| CCOC(=O)C(=C(SC)SC)c1nn2c(=O)cc(C)nc2s1 | 89.7 |
| CCCN=C(NC(=O)c1ccc(Cl)cc1)SC | > 100 |
| COc1ccc(-c2c(C#N)c(NC(=S)NC(=O)c3ccccc3)nc3c2CCCC3)cc1OC | > 100 |
| Cc1c(Cc2ccccc2)n(COCCCO)c(=O)[nH]c1=O | > 100 |
| CC1(C)NC(=O)C(NC(=O)C(CC(=O)OCc2ccccc2)NC(=O)OCc2ccccc2)CCCCNC(=O)CCNC1=O (centres undefined) (Cbz-D(OBn)K[Aib][βAla]; lactam 2-C; configuration not given here) | > 100 |
| c1ccc2c(c1)nc1n2CNCC1 | > 100 |

These molecules were tested on HCT-15 colon (assay: DTP human tumour cell line panel, 48 h).

| SMILES | TGI [µM] |
| --- | --- |
| CC(=O)OC[C@H]1[C@@H]2C(CC[C@]13CO3)OC(=O)CC(C)[C@]2(C)CCc1ccoc1 (some centres undefined) | > 100 |
| CCOC(=O)C(=C(SC)SC)c1nn2c(=O)cc(C)nc2s1 | 31.8 |
| CCCN=C(NC(=O)c1ccc(Cl)cc1)SC | > 100 |
| COc1ccc(-c2c(C#N)c(NC(=S)NC(=O)c3ccccc3)nc3c2CCCC3)cc1OC | > 100 |
| Cc1c(Cc2ccccc2)n(COCCCO)c(=O)[nH]c1=O | > 100 |
| CC1(C)NC(=O)C(NC(=O)C(CC(=O)OCc2ccccc2)NC(=O)OCc2ccccc2)CCCCNC(=O)CCNC1=O (centres undefined) (Cbz-D(OBn)K[Aib][βAla]; lactam 2-C; configuration not given here) | > 100 |
| c1ccc2c(c1)nc1n2CNCC1 | > 100 |

These molecules were tested on MDA-MB-231 breast (assay: DTP human tumour cell line panel, 48 h).

| SMILES | TGI [µM] |
| --- | --- |
| CC(=O)OC[C@H]1[C@@H]2C(CC[C@]13CO3)OC(=O)CC(C)[C@]2(C)CCc1ccoc1 (some centres undefined) | > 100 |
| CCOC(=O)C(=C(SC)SC)c1nn2c(=O)cc(C)nc2s1 | 47.8 |
| CCCN=C(NC(=O)c1ccc(Cl)cc1)SC | > 100 |
| COc1ccc(-c2c(C#N)c(NC(=S)NC(=O)c3ccccc3)nc3c2CCCC3)cc1OC | > 100 |
| Cc1c(Cc2ccccc2)n(COCCCO)c(=O)[nH]c1=O | > 100 |
| CC1(C)NC(=O)C(NC(=O)C(CC(=O)OCc2ccccc2)NC(=O)OCc2ccccc2)CCCCNC(=O)CCNC1=O (centres undefined) (Cbz-D(OBn)K[Aib][βAla]; lactam 2-C; configuration not given here) | > 100 |
| c1ccc2c(c1)nc1n2CNCC1 | > 100 |

Each molecule was assayed on BT-549 breast (assay: DTP human tumour cell line panel, 48 h).

| SMILES | TGI [µM] |
| --- | --- |
| CC(=O)OC[C@H]1[C@@H]2C(CC[C@]13CO3)OC(=O)CC(C)[C@]2(C)CCc1ccoc1 (some centres undefined) | > 100 |
| CCOC(=O)C(=C(SC)SC)c1nn2c(=O)cc(C)nc2s1 | 43.7 |
| CCCN=C(NC(=O)c1ccc(Cl)cc1)SC | 89.8 |
| COc1ccc(-c2c(C#N)c(NC(=S)NC(=O)c3ccccc3)nc3c2CCCC3)cc1OC | > 100 |
| Cc1c(Cc2ccccc2)n(COCCCO)c(=O)[nH]c1=O | > 100 |
| CC1(C)NC(=O)C(NC(=O)C(CC(=O)OCc2ccccc2)NC(=O)OCc2ccccc2)CCCCNC(=O)CCNC1=O (centres undefined) (Cbz-D(OBn)K[Aib][βAla]; lactam 2-C; configuration not given here) | > 100 |
| c1ccc2c(c1)nc1n2CNCC1 | > 100 |

The molecules below were run on HS 578T breast (assay: DTP human tumour cell line panel, 48 h).

| SMILES | TGI [µM] |
| --- | --- |
| CC(=O)OC[C@H]1[C@@H]2C(CC[C@]13CO3)OC(=O)CC(C)[C@]2(C)CCc1ccoc1 (some centres undefined) | > 100 |
| CCOC(=O)C(=C(SC)SC)c1nn2c(=O)cc(C)nc2s1 | > 100 |
